Patent US9930892B2, “Molecules having pesticidal utility, and intermediates, compositions, and processes, related thereto” (Dow AgroSciences LLC, priority 2016, dated 2018)

Assays:
Format in all cases: in vivo
[1] = test system: Cabbage Looper (Trichoplusia ni); assay: Bioassay on Cabbage Looper (CL), 128-well diet tray assay; conditions: 50 μg/cm^2 on artificial diet, second instar larvae, five to seven days, 25° C.
Method: Bioassays on CL were conducted using a 128-well diet tray assay. One to five second instar CL larvae were placed in each well (3 mL) of the diet tray that had been previously filled with 1 mL of artificial diet to which 50 μg/cm^2 of the test molecule (dissolved in 50 μL of 90:10 acetone-water mixture) had been applied (to each of eight wells) and then allowed to dry. Trays were covered with a clear self-adhesive cover and held at 25° C., 14:10 light-dark for five to seven days. Percent mortality was recorded for the larvae in each well; activity in the eight wells was then averaged. The results are indicated in the table entitled “Table ABC: Biological Results” (See Table Section).
(§1) Bioassays on BAW and CL were conducted according to the procedures outlined in Example A: Bioassays on Beet Armyworm (“BAW”) and Cabbage Looper (“CL”) using the indicated concentrations.

[2] = test system: Yellow Fever Mosquito (Aedes aegypti); conditions: 4000 ppm master plate solution diluted, about 1 day-old larvae, scored on mortality after 3 days
Method: Master plates containing 400 μg of a molecule dissolved in 100 μL of dimethyl sulfoxide (DMSO) (equivalent to a 4000 ppm solution) are used. A master plate of assembled molecules contains 15 μL per well. To this plate, 135 μL of a 90:10 water:acetone mixture is added to each well. A robot (Biomek® NXP Laboratory Automation Workstation) is programmed to dispense 15 μL aspirations from the master plate into an empty 96-well shallow plate (“daughter” plate). There are 6 reps (“daughter” plates) created per master. The created daughter plates are then immediately infested with YFM larvae.
The day before plates are to be treated, mosquito eggs are placed in Millipore water containing liver powder to begin hatching (4 g. into 400 mL). After the daughter plates are created using the robot, they are infested with 220 μL of the liver powder/larval mosquito mixture (about 1 day-old larvae). After plates are infested with mosquito larvae, a non-evaporative lid is used to cover the plate to reduce drying. Plates are held at room temperature for 3 days prior to grading. After 3 days, each well is observed and scored based on mortality. The results are indicated in the table entitled “Table ABC: Biological Results” (See Table Section).

[3] = test system: Beet Armyworm (Spodoptera exigua); assay: Bioassay on Beet Armyworm (BAW), 128-well diet tray assay; conditions: 50 μg/cm^2 on artificial diet, second instar larvae, five to seven days, 25° C.
Method: Bioassays on BAW were conducted using a 128-well diet tray assay. One to five second instar BAW larvae were placed in each well (3 mL) of the diet tray that had been previously filled with 1 mL of artificial diet to which 50 μg/cm^2 of the test molecule (dissolved in 50 μL of 90:10 acetone-water mixture) had been applied (to each of eight wells) and then allowed to dry. Trays were covered with a clear self-adhesive cover and held at 25° C., 14:10 light-dark for five to seven days. Percent mortality was recorded for the larvae in each well; activity in the eight wells was then averaged. The results are indicated in the table entitled “Table ABC: Biological Results” (See Table Section).
as §1

| Compound | CL % Control (or Mortality) rating [1] | YFM % Control (or Mortality) rating [2] | BAW % Control (or Mortality) rating [3] |
| --- | --- | --- | --- |
| CN(NC(=O)c1ccc(/C(F)=C/C(c2ccc(Cl)c(Cl)c2)C(F)(F)F)cc1C(F)(F)F)C(=O)NCC(F)(F)F (stereo not drawn) [F15] | A (50-100) | A (80-100) | A (50-100) |
| O=C(CCC(F)(F)F)NNC(=O)c1ccc(/C(F)=C/C(c2cc(Br)c(Cl)c(Br)c2)C(F)(F)F)cc1C(F)(F)F (stereo not drawn) [F5, (Z)-4-(3-(3,5-dibromo-4-chlorophenyl)-1,4,4,4-tetrafluorobut-1-en-1-yl)-N′-(4,4,4-trifluorobutanoyl)-2-(trifluoromethyl)benzohydrazide] | A (50-100) | A (80-100) | A (50-100) |
| CN(NC(=O)c1ccc(/C(F)=C/C(c2cc(Cl)c(F)c(Cl)c2)C(F)(F)F)cc1C(F)(F)F)C(=O)NCC(F)(F)F (stereo not drawn) [F22, (Z)-2-(4-(3-(3,5-Dichloro-4-fluorophenyl)-1,4,4,4-tetrafluorobut-1-en-1-yl)-2-(trifluoromethyl)benzoyl)-1-methyl-N-(2,2,2-trifluoroethyl)hydrazinecarboxamide] | A (50-100) | A (80-100) | A (50-100) |
| CN(NC(=O)c1ccc(/C(F)=C/C(c2ccc(Br)c(Br)c2)C(F)(F)F)cc1C(F)(F)F)C(=O)NCC(F)(F)F (stereo not drawn) [F26, (Z)-2-(4-(3-(3,4-Dibromophenyl)-1,4,4,4-tetrafluorobut-1-en-1-yl)-2-(trifluoromethyl)benzoyl)-1-methyl-N-(2,2,2-trifluoroethyl)hydrazinecarboxamide] | B (More than 0-Less than 50) | A (80-100) | B (More than 0-Less than 50) |
| Cc1cc(C(/C=C(\F)c2ccc(C(=O)NN(C)C(=O)NCC(F)(F)F)c(C(F)(F)F)c2)C(F)(F)F)cc(C)c1Cl (stereo not drawn) [F16, (Z)-2-(4-(3-(4-Chloro-3,5-dimethylphenyl)-1,4,4,4-tetrafluorobut-1-en-1-yl)-2-(trifluoromethyl)benzoyl)-1-methyl-N-(2,2,2-trifluoroethyl)hydrazinecarboxamide] | A (50-100) | A (80-100) | A (50-100) |
| CN(NC(=O)c1ccc(/C(F)=C/C(c2cc(Cl)cc(Br)c2)C(F)(F)F)cc1C(F)(F)F)C(=O)NCC(F)(F)F (stereo not drawn) [F25, (Z)-2-(4-(3-(3-Bromo-5-chlorophenyl)-1,4,4,4-tetrafluorobut-1-en-1-yl)-2-(trifluoromethyl)benzoyl)-1-methyl-N-(2,2,2-trifluoroethyl)hydrazinecarboxamide] | A (50-100) | A (80-100) | A (50-100) |
| O=C(CCC(F)(F)F)NNC(=O)c1ccc(/C(F)=C/C(c2cc(Cl)cc(Cl)c2)C(F)(F)F)cc1C(F)(F)F (stereo not drawn) [F6, (Z)-4-(3-(3,5-Dichlorophenyl)-1,4,4,4-tetrafluorobut-1-en-1-yl)-N′-(4,4,4-trifluorobutanoyl)-2-(trifluoromethyl)benzohydrazide] | A (50-100) | A (80-100) | A (50-100) |
| O=C(CCC(F)(F)F)NNC(=O)c1ccc(/C(F)=C/C(c2cc(Cl)c(Br)c(Cl)c2)C(F)(F)F)cc1C(F)(F)F (stereo not drawn) [F27, (Z)-4-(3-(4-Bromo-3,5-dichlorophenyl)-1,4,4,4-tetrafluorobut-1-en-1-yl)-N′-(4,4,4-trifluorobutanoyl)-2-(trifluoromethyl)benzohydrazide] | A (50-100) | A (80-100) | A (50-100) |
| CN(NC(=O)c1ccc(/C(F)=C/C(c2cc(Br)cc(Br)c2)C(F)(F)F)cc1C(F)(F)F)C(=O)NCC(F)(F)F (stereo not drawn) [F14, (Z)-2-(4-(3-(3,5-dibromophenyl)-1,4,4,4-tetrafluorobut-1-en-1-yl)-2-(trifluoromethyl)benzoyl)-1-methyl-N-(2,2,2-trifluoroethyl)hydrazinecarboxamide] | A (50-100) | A (80-100) | A (50-100) |
| Cc1cc(C(/C=C(\F)c2ccc(C(=O)NN(C)C(=O)NCC(F)(F)F)c(C(F)(F)F)c2)C(F)(F)F)cc(Cl)c1Cl (stereo not drawn) [F30, (Z)-2-(4-(3-(3,4-Dichloro-5-methylphenyl)-1,4,4,4-tetrafluorobut-1-en-1-yl)-2-(trifluoromethyl)benzoyl)-1-methyl-N-(2,2,2-trifluoroethyl)hydrazine-1-carboxamide] | A (50-100) | D (No activity noticed in this bioassay) | A (50-100) |
| CN(NC(=O)c1ccc(/C(F)=C/C(c2cc(Br)c(Cl)c(Br)c2)C(F)(F)F)cc1C(F)(F)F)C(=O)NCC(F)(F)F (stereo not drawn) [F18, (Z)-2-(4-(3-(3,5-Dibromo-4-chlorophenyl)-1,4,4,4-tetrafluorobut-1-en-1-yl)-2-(trifluoromethyl)benzoyl)-1-methyl-N-(2,2,2-trifluoroethyl)hydrazinecarboxamide] | A (50-100) |  | A (50-100) |
| CN(NC(=O)c1ccc(/C(F)=C/C(c2cc(Cl)c(Cl)c(Cl)c2)C(F)(F)F)c2ccccc12)C(=O)NCC(F)(F)F (stereo not drawn) [PF1, (Z)-1-Methyl-2-(4-(1,4,4,4-tetrafluoro-3-(3,4,5-trichlorophenyl)but-1-en-1-yl)-1-naphthoyl)-N-(2,2,2-trifluoroethyl)hydrazine-1-carboxamide] | A (50-100) |  | A (50-100) |
| O=C(CCC(F)(F)F)NNC(=O)c1ccc(/C(F)=C/C(c2ccc(Cl)c(Cl)c2)C(F)(F)F)cc1C(F)(F)F (stereo not drawn) [F7, (Z)-4-(3-(3,4-Dichlorophenyl)-1,4,4,4-tetrafluorobut-1-en-1-yl)-N′-(4,4,4-trifluorobutanoyl)-2-(trifluoromethyl)benzohydrazide] | A (50-100) | A (80-100) | A (50-100) |
| O=C(CCC(F)(F)F)NNC(=O)c1ccc(/C(F)=C/C(c2cc(Br)cc(Br)c2)C(F)(F)F)cc1C(F)(F)F (stereo not drawn) [F9, (Z)-4-(3-(3,5-Dibromophenyl)-1,4,4,4-tetrafluorobut-1-en-1-yl)-N′-(4,4,4-trifluorobutanoyl)-2-(trifluoromethyl)benzohydrazide] | A (50-100) | A (80-100) | A (50-100) |
| O=C(CCC(F)(F)F)NNC(=O)c1ccc(/C(F)=C/C(c2cc(Cl)c(F)c(Cl)c2)C(F)(F)F)cc1C(F)(F)F (stereo not drawn) [F10, (Z)-4-(3-(3,5-Dichloro-4-fluorophenyl)-1,4,4,4-tetrafluorobut-1-en-1-yl)-N′-(4,4,4-trifluorobutanoyl)-2-(trifluoromethyl)benzohydrazide] | A (50-100) | A (80-100) | A (50-100) |
| CN(NC(=O)c1ccc(/C(F)=C/C(c2cc(Cl)cc(Cl)c2)C(F)(F)F)cc1C(F)(F)F)C(=O)NCC(F)(F)F (stereo not drawn) [F8, (Z)-2-(4-(3-(3,5-Dichlorophenyl)-1,4,4,4-tetrafluorobut-1-en-1-yl)-2-(trifluoromethyl)benzoyl)-1-methyl-N-(2,2,2-trifluoroethyl) hydrazinecarboxamide] | A (50-100) | A (80-100) | A (50-100) |
| CN(NC(=O)CCC(F)(F)F)C(=O)c1ccc(/C(F)=C/C(c2cc(Cl)c(Cl)c(Cl)c2)C(F)(F)F)cc1C(F)(F)F (stereo not drawn) [F13, (Z)—N-methyl-4-(1,4,4,4-tetrafluoro-3-(3,4,5-trichlorophenyl)but-1-en-1-yl)-N′-(4,4,4-trifluorobutanoyl)-2-(trifluoromethyl)benzohydrazide] | A (50-100) |  | A (50-100) |
